Source: patent US20250057873A1, “Intestinal Tumor Suppressor, PGE2 Production Inhibitor, and IL-22BP Production Promoter” (TOKYO UNIVERSITY OF SCIENCE FOUNDATION, priority 2021, published 2025)
Each block holds one molecule with its values, some of them ahead of it.

Assays:
colorectal polyps = assay: PGE2 administration to DSS-treated Apc^Min/+Clec7a^-/- mice; format: in vivo, mouse
Experimental: (§1) FIG. 6e: 8-week-old Apc^Min/+Clec7a^−/− mice (n=3) were administered with 2% by mass of DSS for 1 week, and then were administered with PGE2 ([…]) or PBS intraperitoneally every other day for 4 weeks. After euthanization, generation of colorectal polyps in the Apc^Min/+Clec7a^−/− mice with or without PGE2 treatment was examined in comparison to that of the Apc^Min/+ mice (n=3/group).
as §1, with “6f:” for “6e:”, “without the” for “without”
FIG. 6g: 8-week-old Apc^Min/+Clec7a^−/− mice (n=3) were administered with 2% by mass of DSS for 1 week, and then were administered with PGE2 ([…]) or PBS intraperitoneally every other day for 4 weeks. After euthanization, populations of MHC-II^+CD11c^+DCs and MHC-II^−CD11b^+MDSCs in the polyps in the Apc^Min/+Clec7a^−/− mice were measured by flow cytometry (n=3/group).
FIG. 6h: 8-week-old Apc^Min/+Clec7a^−/− mice (n=3) were administered with 2% by mass of DSS for 1 week, and then administered with PGE2 ([…]) or PBS intraperitoneally every other day for 4 weeks. After euthanization, expression of indicated genes in the Apc^Min/+Clec7a^−/− mice was examined by qPCR (n=3/group).
Apc^Min/+ or Apc^Min/+Clec7a^−/− mice were normally raised in SPF condition for 19 to 21 weeks after being born, and polyps in small intestines emerged spontaneously. For the induction of colorectal tumor, same mice with 6 to 7 weeks old were treated with 1% by mass DSS for 1 week, and then were normally raised for another 4 to 5 weeks before sacrifice.

[1] = system: intestinal polyp-infiltrating cells; assay: PGE2 stimulation of intestinal polyp-infiltrating cells of Apc^Min/+ mice, qPCR; format: cell-based, mouse; conditions: PGE2 20 hours
Experimental: FIG. 6i: Tumor-infiltrating cells of the Apc^Min/+ mice (n=2, cells that were pooled during collection) were collected, stimulated with indicated doses of PGE2 for 20 hours, and then the expression of indicated genes was measured by qPCR. The data are mean±SD of 3 wells.
(§2) Infiltrating cells in mouse/human colorectal tumor/non-tumor tissues (2×10^5) or mouse/human colorectal tumor/non-tumor tissue pieces (3 mm×3 mm cut) were cultured with Dectin-1 ligands Curdlan, OXCA, or laminarin, or with PGE2 stimulation for 20 h at 37° C. under 5% CO2 in 96-well flat-bottomed plates (Falcon, Becton Dickinson) in a volume of 0.2 ml RPMI containing 10% FBS and 1% streptomycin plus penicillin. After the culture, cells or tissues were collected and mRNA expression of tumor- or anti-tumor-associated genes was measured by qPCR described in Quantitative reverse transcription PCR section described later.
(§3) Total RNA was extracted with Mammalian Total RNA Miniprep kit (Sigma Aldrich). […]

CRC tumor tissues = assay: Human CRC tumor tissues cultured in the presence of PGE2, qPCR; format: cell-based
Experimental: FIG. 7i: Tumor tissues of CRC patients were collected, minced, and then cultured in the presence of PGE2 for 20 hours. Data are mean±SD of 3 wells. The data in (FIGS. 7g to 7i) are representative of two independent experiments. *p<0.05, **p<0.01, and ****p<0.0001.
as §2, §3

COX-2 = target: T1, COX-2 (Homo sapiens, UniProt P35354); conditions: cited from earlier work
T1 sequence (P35354 18-604): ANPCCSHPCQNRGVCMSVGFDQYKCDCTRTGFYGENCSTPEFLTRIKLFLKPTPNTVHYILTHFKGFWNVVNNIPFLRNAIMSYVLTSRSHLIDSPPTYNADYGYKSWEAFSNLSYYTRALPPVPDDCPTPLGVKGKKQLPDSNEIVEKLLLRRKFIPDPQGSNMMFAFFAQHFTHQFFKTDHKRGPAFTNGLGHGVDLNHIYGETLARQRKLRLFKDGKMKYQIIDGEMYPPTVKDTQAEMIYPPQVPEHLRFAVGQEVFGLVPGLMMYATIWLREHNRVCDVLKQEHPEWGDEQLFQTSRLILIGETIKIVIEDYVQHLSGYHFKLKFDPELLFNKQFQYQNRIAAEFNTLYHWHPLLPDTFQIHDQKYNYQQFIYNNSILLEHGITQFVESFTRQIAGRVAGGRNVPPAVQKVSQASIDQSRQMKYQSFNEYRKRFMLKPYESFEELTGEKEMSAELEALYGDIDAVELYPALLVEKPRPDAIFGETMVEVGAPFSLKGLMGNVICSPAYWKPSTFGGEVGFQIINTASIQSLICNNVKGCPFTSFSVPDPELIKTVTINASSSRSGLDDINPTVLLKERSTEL

Dectin-1 [2] = target: T2, Dectin-1 (Mus musculus, UniProt Q6QLQ4); assay: Stimulation of mouse colorectal polyp CD11b+ and CD11c+ cells with OXCA, with or without laminarin pre-treatment, qPCR; format: cell-based; conditions: laminarin for 3 hours before OXCA 16 hours
T2 construct: CD11b^+ cells and CD11c^+ cells were purified from colorectal polyps with autoMACS; endogenous in cells; host or cells: primary CD11b+/CD11c+ cells or all polyp-infiltrating cells from colorectal/intestinal polyps of WT (C57BL/6J, AOM-DSS) or Apc^Min/+ mice
T2 sequence (Q6QLQ4 1-244): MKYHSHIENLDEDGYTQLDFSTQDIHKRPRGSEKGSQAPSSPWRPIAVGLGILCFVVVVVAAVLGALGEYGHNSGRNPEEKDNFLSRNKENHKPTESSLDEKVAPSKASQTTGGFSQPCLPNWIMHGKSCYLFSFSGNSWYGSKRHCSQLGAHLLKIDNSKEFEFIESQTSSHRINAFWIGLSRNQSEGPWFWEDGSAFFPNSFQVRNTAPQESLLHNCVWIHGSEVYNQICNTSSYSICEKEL
Experimental: FIG. 2d: WT SPF mice were administered with AOM, followed by three cycles of DSS. After 11 weeks, the mice were sacrificed, and CD11b^+ cells and CD11c^+ cells were purified from colorectal polyps with autoMACS. The purified cells were stimulated with an agonistic β-glucan OXCA, or were treated with an antagonistic β-glucan laminarin for 3 hours followed by the stimulation with OXCA for 16 hours, and the expression of Il6 and Il1b was measured by qPCR. The data in (FIGS. 2a to 2d) are representative of two independent experiments, and the data in (FIGS. 2a, 2b, and 2d) are expressed as mean±SD. *p<0.05, **p<0.01, ***p<0.001, and ****p<0.0001.
FIG. 4h: C57BL/6J mice were administered with AOM, and were administered with DSS for three cycles. […] The cells were then stimulated with OXCA and expression of Il-22 bp was measured by qPCR. […] The data in (FIG. 4a and FIGS. 4d to 4h) are representative of two independent experiments, and the data in (FIGS. 4a, 4d, and 4f to 4h) are expressed as mean±SD. **p<0.01, ***p<0.001, and ****p<0.0001.
FIG. 11d: WT mice administered with AOM followed by DSS for three cycles for 12 weeks were sacrificed, and colon CD11b^+ and CD11c^+ myeloid-derived cells were purified by autoMACS. […] The data in (FIGS. 11a, 11c, and 11d) are expressed as mean±SD. *p<0.05, **p<0.01, and ***p<0.001. […]

Dectin-1 [3] = target: T2, Dectin-1; assay: Stimulation of Apc^Min/+ polyp-infiltrating leukocytes / CD11b+ cells with Curdlan, with or without laminarin pre-treatment, qPCR; format: cell-based; conditions: laminarin 4 hours before Curdlan, polyp-infiltrating leukocytes
Experimental: (§4) FIG. 5f: All polyp-infiltrating cells of the Apc^Min/+ mice were collected, and were stimulated with Curdlan for 20 hours, and then the expression of the genes involved in the PGE2 synthesis was measured by qPCR. A laminarin treatment was performed for 4 hours before the Curdlan treatment.
as §4, with “5g: Purified CD11b^+” for “5f: All”, “treatment. The data in (FIGS. 5a to 5g) are representative of two independent experiments and expressed as mean±SD. *p<0.05, **p<0.01, and ***p<0.001.” for “treatment.”
as §2, with “later. […]” for “later.”

[4] = system: AOM-DSS-induced colorectal polyps; assay: AOM-3DSS colorectal tumor model, diet supplemented with 5% laminarin; format: in vivo, mouse
Experimental: FIG. 6a: Oral administration of laminarin suppresses tumor formation in the large intestine, and PGE2 administration promotes tumor formation. AOM was administered to C57BL/6J mice, and 5% by mass of laminarin-containing powdered food was administered (continued for 10 days/cycle) from 3 days before to the end of the one-week administration of DSS, for three cycles in total. At Week 11 from the first AOM administration, the mice were sacrificed and the generation of tumors in the large intestines was observed macroscopically (n=7/group).
FIG. 6b: AOM was administered to C57BL/6J mice, and 5% by mass of laminarin-containing powdered food was administered (continued for 10 days/cycle) from 3 days before to the end of the one-week administration of DSS, for three cycles in total. At Week 11 from the first AOM administration, the mice were sacrificed and the number of the colorectal polyps with indicated sizes was counted (n=7/group).
FIG. 6c: AOM was administered to C57BL/6J mice, and 5% by mass of laminarin-containing powdered food was administered (continued for 10 days/cycle) from 3 days before to the end of the one-week administration of DSS, for three cycles in total. The mice were sacrificed at Week 11 after the first AOM administration and the concentration of PGE2 in tissue homogenates was measured by the ELISA (n=7/group).
FIG. 6d: AOM was administered to C57BL/6J mice, and 5% by mass of laminarin-containing powdered food was administered (continued for 10 days/cycle) from 3 days before to the end of the one-week administration of DSS, for three cycles in total. The mice were sacrificed at Week 11 from the first AOM administration and an mRNA expression of CD11b (Itgam) was examined by qPCR (n=7/group). […]
Polyp and non-polyp tissues from mouse colon were harvested and were put into 2 ml tubes containing 500 μl lysis buffer for protein [RIPA buffer. […] After being centrifuged, supernatant of the tissue homogenate was collected and PGE2 concentration was measured by ELISA Development Kit for PGE2 (R&D systems, Minneapolis, USA). […]

[5] = after PGE2 administration, flow cytometry
[6] = after PGE2 administration, qPCR

expression of CD11b (Itgam), Arginase-1 (Arg1), Cyclin D1 (Ccnd1) and c-Myc (Myc) (colorectal polyps; [6]): enhanced
Molecule: CCCCC[C@H](O)/C=C/[C@H]1[C@H](O)CC(=O)[C@@H]1C/C=C\CCCC(=O)O [PGE2, prostaglandin E2]
polyp number (colorectal polyps; PGE2 intraperitoneally every other day for 4 weeks, DSS-treated Apc^Min/+Clec7a^-/- mice): increased to the similar level of that in Apc^Min/+ mice | infiltration of CD11b+ MDSCs in polyps (colorectal polyps; [5]): promoted | infiltration of CD11c+ DCs and T cells in polyps (colorectal polyps; [5]): suppressed | Il-22 bp expression (colorectal polyps; [6]): suppressed | Il-22 bp expression [1]: directly inhibited | expression of MDSC markers Arg1, CD11b and Nos2 [1]: directly induced | expression of CD33 and CD11B (ITGAM) (CRC tumor tissues; PGE2 20 hours in vitro): directly induced | human IL-22BP expression (CRC tumor tissues; PGE2 20 hours, dose-dependent): suppressed

Molecule: CC(=O)Oc1ccccc1C(=O)O [aspirin]
occurrence or progression of colorectal cancer and polyps (COX-2): can reduce

effect on OXCA-induced Il6 and Il1b expression (Dectin-1 [2]): inhibited | effect on Curdlan-induced Ptges3, Ptgs1 and Ptgs2 expression (Dectin-1 [3]): inhibited
Molecule: Laminarin
burden of colorectal polyps versus control mice ([4]; 5% laminarin diet during 3 cycles of DSS, WT mice, AOM-3DSS): significantly lower | intestinal PGE2 production (tissue homogenate, ELISA) ([4]; 5% laminarin diet, AOM-3DSS mice): suppressed | CD11b (Itgam) expression ([4]; 5% laminarin diet, AOM-3DSS mice, qPCR): reduction
